The source of these data is ChEMBL document CHEMBL3637782, “GSK Tres Cantos Follow-up TB Screening Data” (2016).

The subject of data set [1] is Mycobacterium tuberculosis H37Rv. Kind of data set: GSK_TB: Minimum inhibitory concentration against H37Rv stain of Mycobacterium tuberculosis using MABA method. It counts as functional. The following applies: ATCC25618. On the technique in general: Alamar Blue is a resazurin reagent that responds to reducing activity.
Data set [2] has the same test system. The data set can be described thus: GSK_TB: Inhibition of the intracellular growth of Mycobacterium tuberculosis (pXC50). The class given is functional, ATCC25618.
The test system is the same in data set [3]. The data set can be described thus: GSK_TB: Growth inhibition of non-replicating Mycobacterium tuberculosis (pXC50). The class given is functional, ATCC25618.
The next data set deals with HepG2. The data set can be described thus: GSK_TB: The cytotoxicity against HepG2 cells expressed as IC50. Conditions: Homo sapiens. It counts as functional, cell-based.
Data set [4] can be described thus: GSK_TB: Kinetic solubility of the compound in phosphate buffered saline at pH 7.4 after 1 hr by CLND method. The class given is physicochemical.
Data set [5] in a line: GSK_TB: Lipophilicity, log D of the compound at pH 7.4 by ChromlogD analysis. It counts as physicochemical. The following applies: buffer.
The nature of data set [6]: GSK_TB: AVG_CHROM_LOGP. It counts as physicochemical.

Values after ≈ are worked out from the molar mass of the structure shown. Bounds are passed on as bounds.

Regarding `COc1ccc2nccc(NC(=O)C3CCN(CCc4ccc(Cl)cc4)CC3)c2n1`, the MIC (as a rule, the lowest concentration that inhibits growth of the organism) in data set [1] amounted to 0.2 µM (≈ 0.085 µg/mL). For the same molecule, the results for the pXC50 in data set [2] and in data set [3] were 6.6 and 5.1, respectively. For the same molecule, in the data set on HepG2, the IC50 (in general, the concentration that inhibits the measured activity by half) was > 100 µM. In addition, in data set [4], the solubility (kinetic) (commonly solubility judged after dilution from a stock solution rather than from solid) at 1 h was 4 µg/mL (≈ 9.41 µM). This molecule also yielded a Lipophilicity in data set [5] of 5.49.
On to `O=C(NCc1ccoc1)N1CCN(Cc2ccc3c(c2)OCO3)CC1`, for which, in data set [1], the MIC stood at 1.25 µM (≈ 0.429 µg/mL). The pXC50 in data set [2] is given as 6.3. Also, the IC50 in the data set on HepG2 was > 100 µM. In data set [4], the kinetic solubility at 1 h stood at 86 µg/mL (≈ 250 µM). In addition, the Lipophilicity in data set [5] was found to be 3.48; in data set [6] it was 3.5288.
For the molecule `Nc1ccccc1Nc1ccc(Cl)cc1`, the MIC in data set [1] was 2 µM (≈ 0.437 µg/mL). For the same molecule, the pXC50 turned out to be 7.8 in data set [2] and 4.5 in data set [3]. Moreover, inhibition with HepG2 was half-maximal at 79 µM (IC50). This molecule had a solubility (kinetic) at 1 h in data set [4] of 59 µg/mL (≈ 270 µM). The Lipophilicity stood at 5.76 in data set [5] and 5.9114 in data set [6].
`COc1ccc(-c2nnc3sc(Cc4csc(C)n4)nn23)cc1` came in with a minimal inhibitory concentration (MIC) in data set [1] of 2.5 µM (≈ 0.859 µg/mL). Moreover, the pXC50 in data set [2] came out at 5.7. Moreover, the IC50 in the data set with HepG2 was > 100 µM. Moreover, the kinetic solubility at 1 h in data set [4] worked out at 95 µg/mL (≈ 277 µM). Also, the figures for the Lipophilicity in data set [5] and in data set [6] were 3.97 and 4.0511, respectively.
For `CNc1nc(SC)nnc1-c1cccc(Cl)c1Cl`, inhibition of growth in data set [1] (MIC) required 2.5 µM (≈ 0.753 µg/mL). Also, the pXC50 in data set [2] is on record as 6.1. Moreover, the IC50 in the data set on HepG2 is > 100 µM. Moreover, the solubility (kinetic) at 1 h in data set [4] was ≥ 85 µg/mL. Also, the Lipophilicity in data set [5] was determined as 4.94; in data set [6] it was 4.9976.
For the molecule `CN(Cc1ccc(Cl)cc1)C(=O)CCc1nc2ccccc2oc1=O`, the MIC in data set [1] came to 3.9 µM (≈ 1.39 µg/mL). The values for the pXC50 in data set [2] and in data set [3] were <4.3 and 4.9, respectively. Further, the IC50 in the data set on HepG2 is > 100 µM. In addition, in data set [4], the kinetic solubility at 1 h came out at 127 µg/mL (≈ 356 µM). Besides, the Lipophilicity in data set [5] was 5.86; in data set [6], 6.0093.
As to `O=[N+]([O-])c1cnc(-c2nc3ccccc3[nH]2)s1`, in data set [1], it took 4.4 µM (≈ 1.08 µg/mL) to inhibit growth (MIC). The pXC50 in data set [2] is <4.3. The molecule also showed an IC50 with HepG2 of 10 µM. The same molecule yielded a solubility (kinetic) at 1 h in data set [4] of 16 µg/mL (≈ 65 µM). In addition, the Lipophilicity in data set [5] is 3.17; in data set [6], 4.459.
Consider `c1ccc(-c2ncc(-c3ccc(OCCCn4ccnc4)cc3)s2)cc1`, for which the minimum inhibitory concentration (MIC) in data set [1] amounted to 5 µM (≈ 1.81 µg/mL). In addition, the pXC50 in data set [2] was found to be 5.3. The IC50 with HepG2 was 25 µM. The molecule further came in with a solubility (kinetic) at 1 h in data set [4] of 3 µg/mL (≈ 8.3 µM). Besides, the Lipophilicity turned out to be 6.42 in data set [5] and 6.7437 in data set [6].
Take `FC(F)(F)c1nnc2ccc(Sc3nnc(-c4ccco4)o3)nn12`: in data set [1], the MIC came out at 5.6 µM (≈ 1.98 µg/mL). Further, the results for the pXC50 in data set [2] and in data set [3] were 5.4 and 4.5, respectively. Moreover, in the data set on HepG2, half-maximal inhibition (IC50) was put at 32 µM. The same molecule came in with a kinetic solubility at 1 h in data set [4] of 125 µg/mL (≈ 353 µM). The Lipophilicity was 3.78 in data set [5] and 3.8715 in data set [6].
`O=C(NCCO)c1c(O)c2ncc(Cc3ccc(F)cc3C(F)(F)F)cc2[nH]c1=O` registered an MIC in data set [1] of 7.5 µM (≈ 3.19 µg/mL). Besides, the pXC50 in data set [2] is given as 5.7. For the same molecule, the IC50 in the data set on HepG2 is > 100 µM. In data set [4], this molecule showed a solubility (kinetic) at 1 h of 10 µg/mL (≈ 23.5 µM). Moreover, the Lipophilicity was found to be 3.74 in data set [5] and 3.9858 in data set [6].
Turning to `CC(C)Oc1ccc(-c2nnc(-c3ccc4c(c3)CCNCC4)s2)cc1Cl`, in data set [1], the minimum inhibitory concentration (MIC) was 10 µM (≈ 4 µg/mL). Also, the pXC50 in data set [2] was determined as 5.5. The molecule also registered a half-maximal inhibitory concentration (IC50) with HepG2 of 16 µM. Further, in data set [4], the kinetic solubility at 1 h turned out to be 5 µg/mL (≈ 12.5 µM). For the same molecule, the Lipophilicity is reported as 4.92 in data set [5] and 7.5923 in data set [6].
As for `N#Cc1cc(C(F)(F)F)c2nc(C(=O)NCc3cccs3)c(Cl)n2c1`, the lowest concentration to inhibit growth in data set [1] (MIC) was 10 µM (≈ 3.85 µg/mL). For the same molecule, the pXC50 is 6.1 in data set [2] and 5.2 in data set [3]. Besides, the 50% inhibitory concentration (IC50) in the data set with HepG2 was > 100 µM. The molecule further came in with a solubility (kinetic) at 1 h in data set [4] of 72 µg/mL (≈ 187 µM). Also, the Lipophilicity is given as 5.21 in data set [5] and 5.4382 in data set [6].
Molecule `Nc1ccc(S(=O)(=O)Nc2ccnn2-c2ccccc2)cc1` [SULFAPHENAZOLE] yielded a minimal inhibitory concentration (MIC) in data set [1] of 10 µM (≈ 3.14 µg/mL). In data set [2], the pXC50 is reported as <4.3. Also, the IC50 in the data set on HepG2 is > 100 µM. The solubility (kinetic) at 1 h in data set [4] was ≥ 167 µg/mL. In addition, the Lipophilicity came to 1.08 in data set [5] and 2.8435 in data set [6].
